Reference: US5306482A, “Radiopharmaceutical bacteriostats” (priority 1992, dated 1994)

How the values were obtained:
[1] = Radiolabelling test of benzalkonium chloride (BAC) with sodium pertechnetate 99mTc in the presence of PABA (ITLC-SG radiochromatography, physical appearance); format: physicochemical; details: for effect on PABA / its anti-oxidant properties / physical appearance (precipitate): MDP/PABA kit
Procedure: A preliminary radiolabelling test of benzalkonium chloride (BAC) with sodium pertechnetate ^99m Tc in the presence of para-aminobenzoic acid (PABA) was conducted.
(§1) Three vials with a total volume of 10 ml from a recently manufactured methylene diphosphonic acid (MDP) kit containing PABA were treated with various amounts of benzalkonium chloride, i.e., 1, 5 and 10 mg which corresponded to 0.01, 0.05 and 0.10% solutions. Radiochromatography was performed using ITLC-SG strips developed in acetone and saline. The vials were tested at 5 and 24 hours post reconstitution. At these two periods, less than 1% free pertechnetate and reduced hydrolyzed technetium was found in the three vials.

[2] = test system: bacterial, fungal and mold growth; experiment: Microbiological test according to USP XXI (Example 15) - overall; format: cell-based
Procedure: (§2) A microbiological test was conducted according to USP XXI.
Radiopharmaceutical kits employing MDP (methylene diphosphonic acid), IDP(iminodiphosphonic acid) or DTPA(diethylene-triamine-pentacetic acid) and benzylalkonium chloride (BAC), and optionally polymyxin sulfate B (PSB) were prepared, reconstituted and inoculated utilizing standard procedures.

dust culture = experiment: Bacteriostatic effect of BAC in MDP/PABA - sterility test; format: cell-based, wild strains of bacteria and fungi
Procedure: (§3) A test of the bacteriostatic effects of various concentrations of benzalkonium chloride in MDP/PABA was conducted. A total of fourteen vials, two each of the six concentrations of benzalkonium chloride in MDP/PABA and two control MDP/PABA vials were utilized. A dilute source of microorganisms was prepared by adding 3 drops of a "dust culture" (which was a mixed culture derived from dust and comprised a variety of wild strains of bacteria and fungi typical to ambient conditions) to 1 liter of sterile water for injection. After sufficient agitation, three drops of the dilute culture were added to one vial of each concentration, including one zero vial, and all fourteen vials were left to incubate overnight (approx. 18 hours) at room temperature. One tube (15 mi) of Fluid Thioglycollate medium and one tube (15 mi) of Tryptic Soy medium was inoculated with 1 milliliter from each of the fourteen incubated vials. Each tube was incubated for fourteen days.

[3] = test system: bacterial, fungal and mold growth; experiment: Microbiological test according to USP XXI - overall; format: cell-based; details: 10 or 25 μg BAC in a volume of 10 ml
Procedure: as §2

[4] = MDP/PABA/BAC radiochemical stress test (Example 3); format: physicochemical; details: before filtration; pH 7.0; 50 μg BAC
Procedure: A radiochemical "stress test" was also performed on three vials of MDP/PABA/BAC. A "non-stressed" vial was tested simultaneously as a control.
Four vials of the lyophilized product were labelled with ^99m Tc-sodium pertechnetate. Each received 500 mCi in 10 mL of technetium from a recent elution. For the first three vials, twenty minutes after reconstitution, 7 mL were removed. The fourth vial remained untouched. The vials were kept at room temperature throughout the length of the experiment.
The radiochemical tests were performed at 0.5, 6.0 and 24 hours post reconstitution.

[5] = MDP/PABA formulated with benzalkonium chloride - stress test (radiochromatography); format: physicochemical; details: 10 mg BAC added with 500 mCi pertechnetate 99mTc
Procedure: Four vials of MDP/PABA were reconstituted with 500 mCi of pertechnetate ^99m Tc in 9 mL of normal saline. Immediately to two vials were added 1 mg/1 mL (0.01%) of benzalkonium chloride solution. Similarly, to the remaining two vials we added 10 mg/1 mL (0.1%).

[6] = MDP/PABA compared with MDP/PABA/BAC - biodistribution; format: in vivo; details: rat
Procedure: A lyophilized batch of MDP/PABA formulated with benzalkonium chloride (MDP/PABA/BAC) was prepared and tested. The bacterial preservative was added prior to freeze-drying. No special precaution was taken in order to avoid excessive air oxidation of the tin.
A side by side study of biodistribution of the two formulations with and without benzalkonium chloride was conducted.
Each lyophilized vial contained 10 mg of MDP, 1 mg of stannous chloride dehydrate, 2 mg of PABA and 50 μg of benzalkonium chloride (BAC). The pH was adjusted to 7.0. […] The haze was filtered off to give a clear solution.
The dosage was 83 μg MDP per rat (130-150 g). Tissue distribution was monitored at 20 minutes, 1 hour, 2 hours, 6 hours and 24 hours post-reconstitution (PR).

[7] = MDP/PABA/BAC formulation - radiochemical stress test; format: physicochemical
Procedure: Four batches of MDP/PABA/BAC kits were prepared, lyophilized, and tested. The formulations were as follows: […]
One vial from each batch was reconstituted with 500 mCi ^99m Tc-sodium pertechnetate in 10 mL. Twenty minutes later, 7 mL were removed. The vials were left at room temperature for the duration of the test.

[8] = Accelerated stability study of MDP/PABA/BAC; format: physicochemical
Procedure: The formulations were examined in an accelerated stability study which was conducted according to FDA guidelines.

[9] = IDP/PABA/BAC and IDP/PABA/BAC/PSB stress test (radiochromatography); format: physicochemical; details: 500 mCi pertechnetate 99mTc
Procedure: as §1
(§4) Two vials of IDP/PABA/BAC were reconstituted with 500 mCi of pertechnetate ^99m Tc in 10 mL of normal saline and 7 ml of the solution was removed 20 minutes later, The solutions were kept at room temperature for the length of the test. The radiochromatography tests as described in Example 1 were performed at less than 30 minutes and at 7 and 24 hours post reconstitution (PR):
as §4, with “of IDP/PABA/BAC/PSB” for “of IDP/PABA/BAC”, “minutes later.” for “minutes later,”, “30 min” for “30 minutes”, “(PR): […]” for “(PR):”

[10] = test system: concentrated dust culture; experiment: Bacteriostatic effect of BAC in MDP/PABA - viability check; format: cell-based, wild strains of bacteria and fungi
Procedure: as §3

[11] = MDP/PABA kit vials with 1, 5 and 10 mg BAC (0.01, 0.05, 0.10%), 5 and 24 hours post reconstitution

CC(C)(C)CC(C)(C)c1ccc(OCCOCC[N+](C)(C)Cc2ccccc2)cc1 [benzethonium chloride]
effect on PABA / its anti-oxidant properties [1]: did not interfere with the anti-oxidant properties of PABA | physical appearance (precipitate) [1]: caused the phosphonate to precipitate giving a cloudy solution

polymyxin B
protection against Gram Negative bacteria ([2]; addition to BAC): additional protection against Gram Negative bacteria

N-alkylbenzyldimethylammonium chloride and/or N-dialkylbenzylmethylammonium chloride [benzalkonium chloride]
Sterility test (growth) (dust culture; 10 μg BAC per vial, control (not inoculated), SOY): NEG. | Sterility test (growth) (dust culture; 10 μg BAC per vial, control (not inoculated), THIO.): NEG. | Sterility test (growth) (dust culture; 10 μg BAC per vial, inoculated, SOY): POS. | Sterility test (growth) (dust culture; 10 μg BAC per vial, inoculated, THIO.): POS. | growth in both media (dust culture; 10 μg and 25 μg BAC per vial): Growth was observed in both media | Sterility test (growth) (dust culture; 25 μg BAC per vial, control (not inoculated), SOY): NEG. | Sterility test (growth) (dust culture; 25 μg BAC per vial, control (not inoculated), THIO.): NEG. | Sterility test (growth) (dust culture; 25 μg BAC per vial, inoculated, SOY): POS. | Sterility test (growth) (dust culture; 25 μg BAC per vial, inoculated, THIO.): POS. | Sterility test (growth) (dust culture; 50 μg BAC per vial, control (not inoculated), SOY): NEG. | Sterility test (growth) (dust culture; 50 μg BAC per vial, control (not inoculated), THIO.): NEG. | Sterility test (growth) (dust culture; 50 μg BAC per vial, inoculated, SOY): NEG. | Sterility test (growth) (dust culture; 50 μg BAC per vial, inoculated, THIO.): NEG. | Sterility test (growth) (dust culture; 100 μg BAC per vial, control (not inoculated), SOY): NEG. | Sterility test (growth) (dust culture; 100 μg BAC per vial, control (not inoculated), THIO.): NEG. | Sterility test (growth) (dust culture; 100 μg BAC per vial, inoculated, SOY): NEG. | Sterility test (growth) (dust culture; 100 μg BAC per vial, inoculated, THIO.): NEG. | Sterility test (growth) (dust culture; 250 μg BAC per vial, control (not inoculated), SOY): NEG. | Sterility test (growth) (dust culture; 250 μg BAC per vial, control (not inoculated), THIO.): NEG. | Sterility test (growth) (dust culture; 250 μg BAC per vial, inoculated, SOY): NEG. | Sterility test (growth) (dust culture; 250 μg BAC per vial, inoculated, THIO.): NEG. | Sterility test (growth) (dust culture; 1000 μg BAC per vial, control (not inoculated), SOY): NEG. | Sterility test (growth) (dust culture; 1000 μg BAC per vial, control (not inoculated), THIO.): NEG. | Sterility test (growth) (dust culture; 1000 μg BAC per vial, inoculated, SOY): NEG. | Sterility test (growth) (dust culture; 1000 μg BAC per vial, inoculated, THIO.): NEG. | growth (dust culture; greater than 25 μg BAC per vial): no growth | bacteriostasis [3]: effective bacteriostasis | bacteriostasis ([2]; 25 μg BAC and optionally 25 μg polymyxin B in 10 ml): effective bacteriostasis | haze on addition to the final solution [4]: a slight haze appeared | effect on stability of the product [5]: did not affect the stability of the product | biodistribution of the radiopharmaceutical upon addition of BAC [6]: not altered | effect on reducing capacity of stannous chloride [7]: neither improved nor diminished the reducing capacity of stannous chloride | effect on shelf life of unreconstituted products [8]: does not diminish the shelf life of unreconstituted products | effect on PABA / its anti-oxidant properties [1]: did not have a deteriorating effect on PABA | physical appearance (precipitate) [1]: no precipitate was observed | free pertechnetate [1, 11]: less than 1% | reduced hydrolyzed technetium [1, 11]: less than 1% | effect on PABA / its anti-oxidant properties ([1]; listed as BAC): does not interfere with the anti-oxidant properties of PABA | effect on stability of the product [9]: did not affect the stability of the product | Viability check: date growth observed ([10]; 50 μg BAC, control, SOY): 2/2 | Viability check: date growth observed ([10]; 50 μg BAC, control, THIO.): 2/1 | Viability check: date growth observed ([10]; 50 μg BAC, innoc., SOY): 2/2 | Viability check: date growth observed ([10]; 50 μg BAC, innoc., THIO.): 2/1 | Viability check: date growth observed ([10]; 100 μg BAC, control, SOY): 2/2 | Viability check: date growth observed ([10]; 100 μg BAC, control, THIO.): 2/1 | Viability check: date growth observed ([10]; 100 μg BAC, innoc., SOY): 2/6 | Viability check: date growth observed ([10]; 100 μg BAC, innoc., THIO.): 2/1 | effect in viability test ([10]; 250 μg BAC per vial and over): beneficial effect of the benzalkonium chloride was evident | Viability check: date growth observed ([10]; 250 μg BAC, control, SOY): NEG. | Viability check: date growth observed ([10]; 250 μg BAC, control, THIO.): NEG. | Viability check: date growth observed ([10]; 250 μg BAC, innoc., SOY): NEG. | Viability check: date growth observed ([10]; 250 μg BAC, innoc., THIO.): NEG. | Viability check: date growth observed ([10]; 1000 μg BAC, control, SOY): NEG. | Viability check: date growth observed ([10]; 1000 μg BAC, control, THIO.): NEG. | Viability check: date growth observed ([10]; 1000 μg BAC, innoc., SOY): NEG. | Viability check: date growth observed ([10]; 1000 μg BAC, innoc., THIO.): NEG.
